A short description of one data set: in vivo. The conditions noted are these: male, Wistar, rat, po, 215 nmol/10 mL. As to the method: Male Wistar rats (170 g) were fasted overnight before subjected to the experiment.
As a test method, heart and portal vein of each rat were attached with a cannula to make one-directional perfusion.
To a perfusion sample solution (5.0 mL) collected from the portal vein was added 0.5 mL of 30% sulfosalicylic acid and stirred vigorously, and left overnight in a refrigerator. This sample was centrifuged at 3000 rpm for 10 minutes, to remove protein. For the supernatant of centrifugation, an amount of hydroxyproline in 0.5 mL was colorimetrically quantified, and an amount of free-type Hyp was obtained.
Further, 3.0 mL of the supernatant of centrifugation was weighed into a screw-top test tube, and thereto an equivalent amount of concentrated hydrochloric acid was added, and hydrolyzed at 110° C. for 24 hours. After concentrating and drying the resultant in an evaporator, and removing the hydrochloric acid, the solid was dissolved in 5 mL of distilled water, and several drops of a saturated lithium hydroxide solution was added thereto to adjust pH at 5 to 7, and the volume was fixed at 10 mL. For 2 mL of this solution, an amount of hydroxyproline was colorimetrically quantified to obtain a total Hyp amount. The value obtained by subtracting the amount of free-type Hyp before hydrolysis from the total Hyp amount after hydrolysis is an amount of peptide-form Hyp. From this amount of peptide-form Hyp, a quantitative value of absorption of each peptide molecule into rat portal vein perfusate in the test sample was first determined.
In the above description, the colorimetric quantification of the amount of hydroxyproline was conducted by the Firschein and Shill method described concretely in Evaluation test 4.
Also, identification and quantification of OG, PO, Ala-Hyp, and Ser-Hyp were conducted by HPLC analysis and mass spectrometry (LC/MS/MS) as will be described later.
Analysis of the peptide molecules in the perfusate was conducted by reverse-phase HPLC analysis. As a HPLC device, an LCSS-905 system manufactured by JASCO Corporation, consisting of a liquid feeding pump, a degasser, an automatic sampler, a column open, a UV spectrophotometer, a printer, and a system controller was used. As a reverse-phase column, Nova Pak C18 (3.9×150 mm) was used.
A linear gradient mobile phase of a 0.1% TFA-containing acetonitrile-water system was used, and the injection amount of the sample was 70 μL and the flow rate was 1 mL/min.
As a HPLC device, U980HPLC (manufactured by JASCO Corporation) attached with an ODS(C18) column (Mightysil RP-18, 2×250 mm, manufactured by Kanto Chemical Co Ltd) was used. As a mobile phase solvent, a 0.2% formic acid-containing acetonitrile-water system was used, and the concentration of acetonitrile was increased from 0% to 40% over 40 minutes by a linear gradient, and washed with 100% acetonitrile for 10 minutes. The sample injection amount was 10 μL, and the column temperature was 40° C.
MS analysis was conducted by a MS/MS system using a Quattro LC mass spectrophotometer (Micromass, Manchester, UK) according to a four-channel Multiple Reaction Monitoring method. To be more specific, the elute from HPLC was monitored by m/z being [M+H]^+ and by m/s of its fragment ion species. The monitoring was conducted by using [M+H]^+ m/z: 229.1>132.1 for PO, [M+H]^+ m/z: 219.1>132.1 for Ser-Hyp, [M+H]^+ m/z: 203.1>132.1 for Ala-Hyp, and [M+H]^+ m/z: 189.1>86.1 for OG.
The perfusate was treated with sulfosalicylic acid in a final concentration of 3%, to remove protein. The supernatant liquid was lyophilized and 10 mg of a dry powder was dissolved in distilled water, and subjected to a positive ion exchange resin column to obtain an ammonia elution fraction. After removing the solvent, the fraction was dissolved in distilled water and subjected to LC/MS/MS analysis.

Data set [1] deals with osteoclast (mouse primary bone marrow cell culture). Description: Evaluation Test 1: osteoclast differentiation culture on plastic dish (TRAP-positive multinucleated giant cells). The data set is classed as cell-based. The conditions noted are these: final concentration 625 μM, 6 days culture, control (blank) = 100, n = 6. As to the method:
Evaluation was made in conformance with an osteoclast differentiation culture method by Kobayashi Y. et al. [J. Bone Miner. Metab. (2004) 22: p. 318-328]. […] As a control, TRAP inhibiting activity when no peptide was added (blank) was also examined.

Data set [2] relates to osteoclast (precursor cells of osteoclasts and bone marrow stromal cells on ivory piece). As to the kind of experiment: Evaluation Test 1: Pit assay, osteoclast cultured on ivory piece. In kind it is cell-based, mouse. The note with it: control (blank) = 100, n = 6; for Relative number of TRAP-positive multinucleated giant cells (osteoclasts) by cultivation on ivory piece (%): cultured about 1 week on ivory piece; for Relative number of Pit (%): resorption cavities on ivory piece, about 1 week. As to the method: Further, the inhibition degree of differentiation and activation of osteoclast by each of the peptide molecules, and amino acids was evaluated by the following Pit assay. In brief, the Pi assay in which osteoclast is cultured on an ivory piece was conducted in conformance with Kakudo S, et al J. Bone Miner. Metab. (1996) 14: 129-136. The concrete procedure is as follows. […] Then, after removing the cells from the ivory piece with a silicone rubber policeman, the ivory piece was stained with an acid hematoxylin solution for several minutes. At this time, the number of TRAP staining positive multinucleated giant cells (osteoclast) was counted by TRAP staining, and a relative number with respect to the number of cells in control (blank) was calculated. Then, the Pit number (number of resorption cavity) by osteoclast was counted under a microscope, and the degree of inhibiting osteoclast by each peptide to be tested was indicated by a relative ratio to blank (control).

Each structure is given as a SMILES string. Non-standard residues stand in square brackets, D forms with d. Residues, ends and D or L forms follow the SMILES beside them. Hyp = O=C(O)[C@@H]1C[C@@H](O)CN1

As to `O=C(O)CNC(=O)[C@@H]1C[C@@H](O)CN1C(=O)[C@@H]1CCCN1C(=O)CNC(=O)[C@@H]1C[C@@H](O)CN1C(=O)[C@@H]1CCCN1` [(POG)2, (Pro-Hyp-Gly)2] (H-P[Hyp]GP[Hyp]G-OH; N-terminus and C-terminus assumed), the level at time molar in the data set “in vivo” came out at 1100 nM.

As for `O=C(O)CNC(=O)[C@@H]1C[C@@H](O)CN1C(=O)[C@@H]1CCCN1C(=O)CNC(=O)[C@@H]1C[C@@H](O)CN1C(=O)[C@@H]1CCCN1C(=O)CNC(=O)[C@@H]1C[C@@H](O)CN1C(=O)[C@@H]1CCCN1` [(POG)3, (Pro-Hyp-Gly)3] (H-P[Hyp]GP[Hyp]GP[Hyp]G-OH), the level at time molar in “in vivo” came out at 900 nM.

On to `O=C(O)CNC(=O)[C@@H]1C[C@@H](O)CN1C(=O)[C@@H]1CCCN1C(=O)CNC(=O)[C@@H]1C[C@@H](O)CN1C(=O)[C@@H]1CCCN1C(=O)CNC(=O)[C@@H]1C[C@@H](O)CN1C(=O)[C@@H]1CCCN1C(=O)CNC(=O)[C@@H]1C[C@@H](O)CN1C(=O)[C@@H]1CCCN1` [(POG)4, (Pro-Hyp-Gly)4] (H-P[Hyp]GP[Hyp]GP[Hyp]GP[Hyp]G-OH), for which the level at time molar in “in vivo” is 800 nM.

As for `C[C@H](N)C(=O)N1C[C@H](O)C[C@H]1C(=O)O` [Ala-Hyp] (H-Ala-[Hyp]-OH), in the data set “in vivo”, the level at time molar turned out to be 1200 nM.

`CC(C)C[C@H](NC(=O)[C@H](Cc1c[nH]cn1)NC(=O)CNC(=O)[C@H](CC(=O)O)NC(=O)CNC(=O)[C@@H](N)CCC(=O)O)C(=O)NCC(=O)N[C@@H](CCCCN)C(=O)N1CCC[C@H]1C(=O)NCC(=O)N[C@@H](CCCNC(=N)N)C(=O)N1C[C@H](O)C[C@H]1C(=O)NCC(=O)N[C@@H](CCC(=O)O)C(=O)O` [EGDGHLGKPGROGE] (H-EGDGHLGKPGR[Hyp]GE-OH) returned a level at time molar in “in vivo” of 100 nM.

`N=C(N)NCCC[C@H](NC(=O)CNC(=O)[C@@H]1CCCN1C(=O)[C@H](CCCCN)NC(=O)CNC(=O)[C@@H]1CCCN1C(=O)[C@H](Cc1c[nH]cn1)NC(=O)CNC(=O)[C@H](CC(=O)O)NC(=O)[C@H](CCCCN)NC(=O)[C@@H](N)CCC(=O)O)C(=O)N1C[C@H](O)C[C@H]1C(=O)NCC(=O)N[C@@H](CCC(=O)O)C(=O)O` [EKDGHPGKPGROGE] (H-EKDGHPGKPGR[Hyp]GE-OH): the level at time molar in “in vivo” stood at 100 nM.

With `NCC(=O)N1CCC[C@H]1C(=O)N1C[C@H](O)C[C@H]1C(=O)NCC(=O)N1CCC[C@H]1C(=O)N1C[C@H](O)C[C@H]1C(=O)NCC(=O)O` [G(POG)2, Gly-(Pro-Hyp-Gly)2] (H-GP[Hyp]GP[Hyp]G-OH; N-terminus and C-terminus assumed), in the data set “in vivo”, the level at time molar came to 100 nM.

In the data set “in vivo”, `NCC(=O)N1CCC[C@H]1C(=O)N1C[C@H](O)C[C@H]1C(=O)NCC(=O)N1CCC[C@H]1C(=O)N1C[C@H](O)C[C@H]1C(=O)NCC(=O)N1CCC[C@H]1C(=O)N1C[C@H](O)C[C@H]1C(=O)NCC(=O)O` [G(POG)3, Gly-(Pro-Hyp-Gly)3] (H-GP[Hyp]GP[Hyp]GP[Hyp]G-OH) came in with a level at time molar of 80 nM.

For `O=C(O)[C@@H]1C[C@@H](O)CN1` [Hyp, hydroxyproline], in data set [1], the “Relative area of TRAP-positive multinucleated giant cells (osteoclasts) by cultivation on plastic dish (%)” value is given as 117 ± 13 % and the “Relative number of TRAP-positive multinucleated giant cells (osteoclasts) by cultivation on plastic dish (%)” value is 126 ± 4 %. In addition, in data set [2], the “Relative number of TRAP-positive multinucleated giant cells (osteoclasts) by cultivation on ivory piece (%)” value stood at 141 ± 9 % and the “Relative number of Pit (%)” value was 131 ± 11 %.

The molecule `O=C(O)CNC(=O)[C@@H]1C[C@@H](O)CN1` [OG, Hyp-Gly] (H-[Hyp]-Gly-OH) returned a level at time molar in “in vivo” of 9800 nM.

The molecule `O=C(O)[C@@H]1C[C@@H](O)CN1C(=O)[C@@H]1CCCN1` [PO, Pro-Hyp] (H-Pro-[Hyp]-OH) yielded a level at time molar in the data set “in vivo” of 21300 nM.

Take `O=C(O)[C@@H]1CCCN1` [Pro, proline]: in data set [1], the “Relative area of TRAP-positive multinucleated giant cells (osteoclasts) by cultivation on plastic dish (%)” value was 125 ± 69% and the “Relative number of TRAP-positive multinucleated giant cells (osteoclasts) by cultivation on plastic dish (%)” value came to 119 ± 44%. For the same molecule, in data set [2], the “Relative number of TRAP-positive multinucleated giant cells (osteoclasts) by cultivation on ivory piece (%)” value is on record as 119 ± 20% and the “Relative number of Pit (%)” value worked out at 121 ± 23%.

For `N[C@@H](CO)C(=O)N1C[C@H](O)C[C@H]1C(=O)O` [Ser-Hyp] (H-Ser-[Hyp]-OH), the level at time molar in the data set “in vivo” is 700 nM.
